Experiment [1] relates to IL10 secretion by OCI-LY3 ABC-DLBCL cells. Description: Human IL10 Mesoscale assay (OCI-LY3). Particulars: Homo sapiens, 24 h. Type of experiment: cell-based. In short, it runs like this: (§1)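 After 24 h at 37 °C with test compounds (15 μM down to 58.6 nM, 9 twofold steps, 0.3% DMSO), IL6 and IL10 secreted by 100,000 OCI-LY3 or TMD8 cells per well were measured in supernatants with a Mesoscale immunoassay. Data were scaled between DMSO wells (high) and RN486 treatment (low).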

Experiment [2] concerns IL6 secretion by OCI-LY3 ABC-DLBCL cells. In words: Human IL6 Mesoscale assay (OCI-LY3). Type of experiment: cell-based. Particulars: Homo sapiens, 24 h. In short, it runs like this: as §1
Experiment [3] addresses full-length MALT1 protein (Strep-MALT1(1-824)-His) (Homo sapiens (Human), UniProt Q9UDY8). In words: MALT1 Biochemical Protease Assay (Ac-LRSR-AMC substrate). The following applies: 10 nM FL MALT1, 200 μM Ac-LRSR-AMC, 4 h at RT; read-out: MALT1_Biochemical activity (Ac-LRSR-amc) IC50. Put shortly: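 Fluorescence from AMC release off the quenched LRSR substrate was read after a 4 h reaction at RT. Values were normalised to no-enzyme and uninhibited controls and fitted for IC50 and Hill coefficient.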

The subject of experiment [4] is IL6 secretion by TMD8 ABC-DLBCL cells. Description: Human IL6 Mesoscale assay (TMD-8). Particulars: Homo sapiens, TMD8; TMD-8 cells, 24 h. The experiment is classed as cell-based. Put shortly:
as §1

The test system of experiment [5] is IL10 secretion by TMD8 ABC-DLBCL cells. In words: Human IL10 Mesoscale assay (TMD-8). The experiment is classed as cell-based. The following applies: Homo sapiens, TMD8; TMD-8 cells, 24 h. In short, it runs like this: as §1

Structures are written as SMILES.

Sequence of full-length MALT1 protein (Strep-MALT1(1-824)-His) (Q9UDY8 whole entry): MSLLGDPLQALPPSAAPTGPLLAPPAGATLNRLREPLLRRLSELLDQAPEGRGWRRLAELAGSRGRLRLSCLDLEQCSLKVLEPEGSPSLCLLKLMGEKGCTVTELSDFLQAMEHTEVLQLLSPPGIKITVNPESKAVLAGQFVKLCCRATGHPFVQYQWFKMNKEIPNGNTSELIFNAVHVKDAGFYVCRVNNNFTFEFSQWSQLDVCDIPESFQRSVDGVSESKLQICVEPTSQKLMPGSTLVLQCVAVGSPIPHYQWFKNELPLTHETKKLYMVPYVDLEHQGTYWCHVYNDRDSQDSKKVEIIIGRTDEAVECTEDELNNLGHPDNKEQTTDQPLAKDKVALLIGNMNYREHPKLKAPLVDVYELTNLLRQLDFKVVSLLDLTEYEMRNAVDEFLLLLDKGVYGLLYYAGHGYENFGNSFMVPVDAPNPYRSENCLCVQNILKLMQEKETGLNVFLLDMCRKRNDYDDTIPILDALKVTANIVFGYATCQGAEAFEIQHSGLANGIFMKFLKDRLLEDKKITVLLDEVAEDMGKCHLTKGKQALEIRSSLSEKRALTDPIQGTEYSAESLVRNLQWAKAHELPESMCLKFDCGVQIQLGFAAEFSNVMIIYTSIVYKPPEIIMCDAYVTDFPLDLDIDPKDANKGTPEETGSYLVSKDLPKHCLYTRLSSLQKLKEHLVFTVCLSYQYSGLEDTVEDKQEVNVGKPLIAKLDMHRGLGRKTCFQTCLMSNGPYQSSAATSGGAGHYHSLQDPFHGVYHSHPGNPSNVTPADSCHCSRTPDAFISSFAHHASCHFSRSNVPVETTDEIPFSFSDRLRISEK

Regarding `Cc1nc(-n2nccn2)c(Cl)cc1NC(=O)c1cnn(-c2cccc3nccn23)c1C(F)(F)F` [Cpd 194, N-(5-chloro-2-methyl-6-(2H-1,2,3-triazol-2-yl)pyridin-3-yl)-1-(imidazo[1,2-a]pyridin-5-yl)-5-(trifluoromethyl)-1H-pyrazole-4-carboxamide], the IC50 in experiment [1] is 68 nM; in experiment [2], 100 nM; in experiment [3], 76 nM; in experiment [4] it was 78 nM; in experiment [5], 98 nM.
In the same order, the values of `N#Cc1cc(NC(=O)c2cnn(-c3cncc4ccccc34)c2C(F)(F)F)cnc1C(=O)NCCCCN` [Cpd 236, N-(4-aminobutyl)-3-cyano-5-(1-(isoquinolin-4-yl)-5-(trifluoromethyl)-1H-pyrazole-4-carboxamido)picolinamide] are 309 nM, 380 nM, 724 nM, 1380 nM and 427 nM.
In the same order, the values of `Cc1cc(NC(=O)c2cnn(-c3cccc4ncccc34)c2C(F)(F)F)ccc1-n1cc(CN)cn1` [Cpd 238, N-(4-(4-(aminomethyl)-1H-pyrazol-1-yl)-3-methylphenyl)-1-(quinolin-5-yl)-5-(trifluoromethyl)-1H-pyrazole-4-carboxamide] are 35 nM, 44 nM, 676 nM, 32 nM and 50 nM.
In the same order, the values of `Cn1ncc2c(-n3ncc(C(=O)Nc4cnc(-n5nccn5)c(C#N)c4)c3C(F)(F)F)ccnc21` [Cpd 241, N-(5-cyano-6-(2H-1,2,3-triazol-2-yl)pyridin-3-yl)-1-(1-methyl-1H-pyrazolo[3,4-b]pyridin-4-yl)-5-(trifluoromethyl)-1H-pyrazole-4-carboxamide] are 37 nM, 51 nM, 562 nM, 49 nM and 69 nM.
`COc1nccc2c(-n3ncc(C(=O)Nc4cnc(-n5nccn5)c(Cl)c4)c3C(F)(F)F)cccc12` [Cpd 243, N-(5-chloro-6-(2H-1,2,3-triazol-2-yl)pyridin-3-yl)-1-(1-methoxyisoquinolin-5-yl)-5-(trifluoromethyl)-1H-pyrazole-4-carboxamide]: the IC50 in experiment [1] was 129 nM; in experiment [2], 120 nM; in experiment [3], 417 nM; in experiment [4], 363 nM; in experiment [5], 339 nM.
In the same order, the values of `NC(=O)c1cnn(-c2ccc(NC(=O)c3cnn(-c4cccc5ncccc45)c3C(F)(F)F)cc2Cl)n1` [Cpd 244, 2-(2-chloro-4-(1-(quinolin-5-yl)-5-(trifluoromethyl)-1H-pyrazole-4-carboxamido)phenyl)-2H-1,2,3-triazole-4-carboxamide] are 155 nM, 174 nM, 398 nM, 741 nM and 245 nM.
In the same order, the values of `Cn1ncc2cccc(-n3ncc(C(=O)Nc4cnc(-n5nccn5)c(C#N)c4)c3C(F)(F)F)c21` [Cpd 260, N-(5-cyano-6-(2H-1,2,3-triazol-2-yl)pyridin-3-yl)-1-(1-methyl-1H-indazol-7-yl)-5-(trifluoromethyl)-1H-pyrazole-4-carboxamide] are > 3020 nM, > 3020 nM, 204 nM, > 3020 nM and > 3020 nM.
In the same order, the values of `Cn1ccc(-c2ncc(NC(=O)c3cnn(-c4ccc(F)c5ncccc45)c3C(F)(F)F)cc2C#N)n1` [Cpd 268, N-(5-cyano-6-(1-methyl-1H-pyrazol-3-yl)pyridin-3-yl)-1-(8-fluoroquinolin-5-yl)-5-(trifluoromethyl)-1H-pyrazole-4-carboxamide] are 63 nM, 95 nM, 155 nM, 158 nM and 229 nM.
Consider `O=C(Nc1cnc(-n2nccn2)c(Cl)c1)c1cnn(-c2cccc3nc(F)ccc23)c1C(F)(F)F` [Cpd 277, N-(5-chloro-6-(2H-1,2,3-triazol-2-yl)pyridin-3-yl)-1-(2-fluoroquinolin-5-yl)-5-(trifluoromethyl)-1H-pyrazole-4-carboxamide], for which the IC50 was found to be 87 nM in experiment [1]; 89 nM in experiment [2]; 132 nM in experiment [3]; 170 nM in experiment [4]; 95 nM in experiment [5].
In the same order, the values of `Cc1nc(-n2cccn2)c(Cl)cc1NC(=O)c1cnn(-c2cccc3nnsc23)c1C(F)(F)F` [Cpd 303, 1-(benzo[d][1,2,3]thiadiazol-7-yl)-N-(5-chloro-2-methyl-6-(1H-pyrazol-1-yl)pyridin-3-yl)-5-(trifluoromethyl)-1H-pyrazole-4-carboxamide] are 275 nM, 251 nM, 282 nM, 234 nM and 174 nM.
In the same order, the values of `CN(C)c1ncc(-n2ncc(C(=O)Nc3cnc(-n4nccn4)c(Cl)c3)c2C(F)(F)F)c2ccccc12` [Cpd 322, N-(5-chloro-6-(2H-1,2,3-triazol-2-yl)pyridin-3-yl)-1-(1-(dimethylamino)isoquinolin-4-yl)-5-(trifluoromethyl)-1H-pyrazole-4-carboxamide] are 135 nM, 148 nM, 214 nM, 562 nM and 708 nM.
In the same order, the values of `O=C1COC(c2ncc(-n3ncc(C(=O)Nc4cnc(-n5nccn5)c(Cl)c4)c3C(F)(F)F)c3ccccc23)C1` (stereo not drawn) [Cpd 370, N-(5-chloro-6-(2H-1,2,3-triazol-2-yl)pyridin-3-yl)-1-(1-(4-oxotetrahydrofuran-2-yl)isoquinolin-4-yl)-5-(trifluoromethyl)-1H-pyrazole-4-carboxamide] are 10 nM, 13 nM, 107 nM, 54 nM and 46 nM.
On to `CC(O)c1ncc(-n2ncc(C(=O)Nc3cnc(-n4nccn4)c(Cl)c3)c2C(F)(F)F)c2ccccc12` (stereo not drawn) [Cpd 371, N-(5-chloro-6-(2H-1,2,3-triazol-2-yl)pyridin-3-yl)-1-(1-(1-hydroxyethyl)isoquinolin-4-yl)-5-(trifluoromethyl)-1H-pyrazole-4-carboxamide], for which the half-maximal inhibitory concentration (IC50) in experiment [1] is 18 nM; in experiment [2] it was 18 nM; in experiment [3], 69 nM; in experiment [4], 13 nM; in experiment [5] it was 25 nM.
Regarding `CC(C)(C)OC(=O)N1CCC1c1nccc2c(-n3ncc(C(=O)Nc4cnc(-n5nccn5)c(Cl)c4)c3C(F)(F)F)cccc12` (stereo not drawn) [Cpd 383, tert-butyl 2-(5-(4-((5-chloro-6-(2H-1,2,3-triazol-2-yl)pyridin-3-yl)carbamoyl)-5-(trifluoromethyl)-1H-pyrazol-1-yl)isoquinolin-1-yl)azetidine-1-carboxylate], the IC50 is 36 nM in experiment [1]; 27 nM in experiment [2]; 10000 nM in experiment [3]; 95 nM in experiment [4]; 105 nM in experiment [5].
In the same order, the values of `O=C(Nc1cnc(-n2nccn2)c(Cl)c1)c1cnn(-c2cccc3c(C4CCN4)nccc23)c1C(F)(F)F` (stereo not drawn) [Cpd 384, 1-(1-(azetidin-2-yl)isoquinolin-5-yl)-N-(5-chloro-6-(2H-1,2,3-triazol-2-yl)pyridin-3-yl)-5-(trifluoromethyl)-1H-pyrazole-4-carboxamide] are 14 nM, 18 nM, 5890 nM, 120 nM and 123 nM.
In the same order, the values of `CNC(=O)c1ncc(-n2ncc(C(=O)Nc3cnc(-n4nccn4)c(Cl)c3)c2C(F)(F)F)c2ccsc12` [Cpd 392, 4-(4-((5-chloro-6-(2H-1,2,3-triazol-2-yl)pyridin-3-yl)carbamoyl)-5-(trifluoromethyl)-1H-pyrazol-1-yl)-N-methylthieno[2,3-c]pyridine-7-carboxamide] are 17 nM, 26 nM, 26 nM, 170 nM and 200 nM.
In the same order, the values of `O=C(Nc1cnc(-n2nccn2)c(Cl)c1)c1cnn(-c2cccc3c[n+]([O-])ccc23)c1C(F)(F)F` [Cpd 407, 5-(4-((5-chloro-6-(2H-1,2,3-triazol-2-yl)pyridin-3-yl)carbamoyl)-5-(trifluoromethyl)-1H-pyrazol-1-yl)isoquinoline 2-oxide] are 40 nM, 34 nM, 21 nM, 110 nM and 100 nM.
With `O=C(Nc1cnc(-n2nccn2)c(Cl)c1)c1cnn(-c2cccc3c2ccc[n+]3[O-])c1C(F)(F)F` [Cpd 408, 5-(4-((5-chloro-6-(2H-1,2,3-triazol-2-yl)pyridin-3-yl)carbamoyl)-5-(trifluoromethyl)-1H-pyrazol-1-yl)quinoline 1-oxide], the IC50 in experiment [1] was determined as 81 nM; in experiment [2] it was 54 nM; in experiment [3] it was 112 nM; in experiment [4], 141 nM; in experiment [5], 162 nM.

(Values after US10954214B2 (Janssen Pharmaceutica NV, priority 2016, dated 2021).)
